Results: patent publication US20250108038A1 (priority 2023, published 2025)
“And” between values parts separate entries of the source, which are not always exact repeats. Equal entries are not always repeated. Where two headings read alike, the source gives them in different places.

How the values were obtained:
[1] = Method: Twelve male Wistar Han rats were divided into 4 groups, n=3 per group.
Dose solutions were prepared freshly on the day of study prior to dosing.
The animals were weighed immediately prior to dosing and the dose volume was calculated individually based the obtained body weight and the nominal dose volume. […] The test articles were administered either orally by gavage, or intraperitoneally by injection. The nominal dose volume was 10 mL/kg for both compounds and both routes.
Cage side observation was performed before and after dosing as well as at each scheduled sample collection. The observation included appearance, posture, behavior, morbidity and mortality. Abnormal findings, if any, were recorded in the study notebook and communicated with study director, veterinarian, and Supernus if necessary.
Approximately 100 μL blood was collected at each scheduled time point from jugular veins. The actual sample collection time was within 1 min. of the nominal time for collections prior to or at 1 hour, and within 5% of the nominal time for collections post 1 hour.
The blood samples were placed in pre-labeled micro-centrifuge tubes containing K2EDTA as anticoagulant and kept on ice, and then were processed to plasma within 30 minutes of collection by centrifugation at 4° C., 3000 g for 5 minutes, and then stored at −70±10° C. until analysis by LC-MS/MS.
Plasma concentrations below the LLOQ prior to Tmax were set to zero, and those after Tmax were excluded from PK calculation. The nominal dose and the nominal sample collection time were used for the calculation. The values of plasma concentrations and PK parameters are reported to three significant figures. The average values of each treatment group are presented as mean±SD.

[2] = system: orexin/tTA; Tet-O diphtheria toxin A mice (DTA mice); type: in vivo, mouse; conditions: for latency to REM: vehicle about 100 min
OAT1 = target: T1, OAT1 (Homo sapiens, UniProt Q4U2R8); assay: Uptake transporter inhibition assay, OAT1 (tenofovir)
T1 sequence (Q4U2R8 1-563): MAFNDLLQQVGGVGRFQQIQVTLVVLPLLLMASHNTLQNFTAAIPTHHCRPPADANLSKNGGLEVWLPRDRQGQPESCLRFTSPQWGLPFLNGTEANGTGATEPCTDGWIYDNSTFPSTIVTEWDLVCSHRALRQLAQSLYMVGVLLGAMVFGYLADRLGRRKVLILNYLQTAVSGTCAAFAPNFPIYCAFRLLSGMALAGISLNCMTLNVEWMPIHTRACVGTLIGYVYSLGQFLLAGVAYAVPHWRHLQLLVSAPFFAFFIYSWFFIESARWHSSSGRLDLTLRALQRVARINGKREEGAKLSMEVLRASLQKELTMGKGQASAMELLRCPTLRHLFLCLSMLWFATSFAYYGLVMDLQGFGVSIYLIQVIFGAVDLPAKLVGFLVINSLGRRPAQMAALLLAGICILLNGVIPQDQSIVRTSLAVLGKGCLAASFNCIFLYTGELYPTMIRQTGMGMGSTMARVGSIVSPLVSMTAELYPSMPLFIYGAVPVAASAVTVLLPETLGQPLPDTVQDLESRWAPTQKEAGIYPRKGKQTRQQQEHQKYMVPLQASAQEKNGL
Method: Uptake experiments were performed using HEK293 cells stably expressing the respective uptake transporters. The assays were conducted according to the actual SOLVO uptake transporter assay protocols (PR-ASY-UPT-General Protocol for Uptake Transporter Inhibition Assays).
Cells were cultured at 37° C. in a humidified atmosphere containing 5% CO2 and were plated onto standard 96-well tissue culture plates.
Before the experiment, the medium was removed, and the cells were washed twice with 100 μL of pre-warmed (37° C.) assay buffer listed in Table 15. The cells were pre-incubated at 37° C. for 30 minutes in assay buffer containing the test article at appropriate concentrations (Table 16), appropriate solvents for solvent controls and the reference inhibitor for reference inhibitor wells. After the pre-incubation step solutions were removed. Uptake experiments were performed at 37° C. in 50 μL of assay buffer containing the probe substrate and the test article or solvent and controls.
After the experiment, cells were washed twice with 100 μL of appropriate cold buffer and lysed with 150 μL scintillation cocktail. Radiolabeled probe substrate transport was determined by liquid scintillation counting.
Uptake of the probe substrate in control cells provided background activity values for all data points.

[3] = single IP Compound I-19 4.061 mg/kg, male Wistar Han rats, individual animals
[4] = single IP Compound I-19 4.061 mg/kg, male Wistar Han rats, mean
[5] = single PO Compound I-19 4.061 mg/kg, male Wistar Han rats, individual animals
[6] = single PO Compound I-19 4.061 mg/kg, male Wistar Han rats, mean
[7] = last 6 h of the dark period (ZT19-ZT24)
[8] = 10.00 μM nominal, 6.60 μM NSB corrected
[9] = 100.00 μM nominal, 77.00 μM NSB corrected

**Q.** Which results are given for `Clc1ccc(C2(OCC3OCCO3)c3ccccc3C3=NCCN32)cc1` (centres unmarked) [Compound I-19]?
**A.** plasma concentration of Compound I-19 ([1]; 0.500 h, single IP Compound I-19 4.061 mg/kg, male Wistar Han rats, individual animals): 150 ng/mL and 193 ng/mL and 136 ng/mL; plasma concentration of Compound I-19 ([1]; 0.500 h, single IP Compound I-19 4.061 mg/kg, male Wistar Han rats, mean): 160 ng/mL; plasma concentration of Compound I-19 ([1]; 2.00 h, single IP Compound I-19 4.061 mg/kg, male Wistar Han rats, individual animals): 126 ng/mL and 144 ng/mL and 188 ng/mL; plasma concentration of Compound I-19 ([1]; 2.00 h, single IP Compound I-19 4.061 mg/kg, male Wistar Han rats, mean): 153 ng/mL; plasma concentration of Compound I-19 ([1]; 2.00 h, single PO Compound I-19 4.061 mg/kg, male Wistar Han rats, individual animals): BQL; plasma concentration of Compound I-19 ([1]; 4.00 h, single IP Compound I-19 4.061 mg/kg, male Wistar Han rats, individual animals): 73.3 ng/mL and 69.9 ng/mL and 91.6 ng/mL; plasma concentration of Compound I-19 ([1]; 4.00 h, single IP Compound I-19 4.061 mg/kg, male Wistar Han rats, mean): 78.3 ng/mL; plasma concentration of Compound I-19 ([1]; 4.00 h, single PO Compound I-19 4.061 mg/kg, male Wistar Han rats, individual animals): BQL; plasma concentration of Compound I-19 ([1]; 8.00 h, single IP Compound I-19 4.061 mg/kg, male Wistar Han rats, individual animals): 6.11 ng/mL and 10.1 ng/mL and 10.7 ng/mL; plasma concentration of Compound I-19 ([1]; 8.00 h, single IP Compound I-19 4.061 mg/kg, male Wistar Han rats, mean): 8.97 ng/mL; plasma concentration of Compound I-19 ([1]; 8.00 h, single PO Compound I-19 4.061 mg/kg, male Wistar Han rats, individual animals): BQL; plasma concentration of Compound I-19 ([1]; 24.0 h, single IP Compound I-19 4.061 mg/kg, male Wistar Han rats, individual animals): BQL; plasma concentration of Compound I-19 ([1]; 24.0 h, single PO Compound I-19 4.061 mg/kg, male Wistar Han rats, individual animals): BQL; plasma concentration of Compound I-19 ([1]; […] h, single IP Compound I-19 4.061 mg/kg, male Wistar Han rats, mean): 168 ng/mL; Clinical observation (tolerability) ([1]; male Wistar Han rats, PO and IP, administered dosages): well tolerated; T1/2 of the administered compound ([1]; rat, in vivo, ip): 1.43 ± 0.107 h; AUC0-inf of Compound I-19 [1, 3]: 584 ng·h/mL and 660 ng·h/mL and 771 ng·h/mL; AUC0-last of Compound I-19 [1, 3]: 572 ng·h/mL and 637 ng·h/mL and 749 ng·h/mL; Cmax of Compound I-19 [1, 3]: 158 ng/mL and 193 ng/mL and 192 ng/mL; MRT0-inf of Compound I-19 [1, 3]: 2.63 h and 2.73 h and 2.80 h; MRT0-last of Compound I-19 [1, 3]: 2.48 h and 2.47 h and 2.59 h; T1/2 of Compound I-19 [1, 3]: 1.33 h and 1.54 h and 1.43 h; Tlast of Compound I-19 [1, 3]: 8.00 h; Tmax of Compound I-19 [1, 3]: 0.500 h; AUC0-inf of Compound I-19 [1, 4]: 672 ng·h/mL; AUC0-last of Compound I-19 [1, 4]: 653 ng·h/mL; Cmax of Compound I-19 [1, 4]: 181 ng/mL; MRT0-inf of Compound I-19 [1, 4]: 2.72 h; MRT0-last of Compound I-19 [1, 4]: 2.51 h; T1/2 of Compound I-19 [1, 4]: 1.43 h; Tlast of Compound I-19 [1, 4]: 8.00 h; Tmax of Compound I-19 [1, 4]: 0.583 h; AUC0-last of Compound I-19 [1, 5]: 0.510 ng·h/mL and 0.285 ng·h/mL; Cmax of Compound I-19 [1, 5]: 1.02 ng/mL and 1.14 ng/mL; MRT0-last of Compound I-19 [1, 5]: 1.00 h and 0.500 h; Tlast of Compound I-19 [1, 5]: 1.00 h and 0.500 h; Tmax of Compound I-19 [1, 5]: 0.500 h; AUC0-last of Compound I-19 [1, 6]: 0.398 ng·h/mL; Cmax of Compound I-19 [1, 6]: 1.08 ng/mL; MRT0-last of Compound I-19 [1, 6]: 0.750 h; Tlast of Compound I-19 [1, 6]: 0.750 h; body temperature (Tb) ([2]; 6 h after dosing at ZT12): No significant effects; locomotor activity (LMA) ([2]; 6 h after dosing at ZT12): No significant effects; total W or NREM time ([2]; 6 h after dosing at ZT12): No significant effects on total W or NREM were observed; cataplexy (C) time ([2]; 6 h after dosing at ZT12, Compound I-19 0.3, 1, 3 mg/kg i.p., Compound I-4 0.3, 1, 3 mg/kg p.o., Des 5 mg/kg p.o.): Total C time significantly decreased following all three concentrations; REM time ([2]; 6 h after dosing at ZT12, same doses): REM time significantly decreased following Compound I-19 at the two highest doses (1 and 3 mg/kg); REM:NR ratio ([2]; Compound I-19 1 mg/kg i.p.): ~0.2; latency to REM ([2]; Compound I-19 1 mg/kg i.p.): ~275 min; REM:NR ratio ([2]; Compound I-19 3 mg/kg i.p.): ~0.1; latency to REM ([2]; Compound I-19 3 mg/kg i.p.): ~325 min; cataplexy (C), hourly, cumulative and total time [2, 7]: significantly less following the high concentration of Compound I-19 (3 mg/kg); time in W, NREM or REM [2, 7]: not different from Veh; Relative inhibition (OAT1; [8]): 11%; Relative transporter specific accumulation (OAT1; [8]): 89.39 ± 1.16 % of control; Transporter specific accumulation (OAT1; [8]): 5,462.33 ± 30.98 cpm; Relative inhibition (OAT1; [9]): 33%; Relative transporter specific accumulation (OAT1; [9]): 66.61 ± 1.15 % of control; Transporter specific accumulation (OAT1; [9]): 4,070.33 ± 51.74 cpm; Maximum % inhibition (OAT1; OAT1, HEK293 cells, tenofovir (5 μM), NIO: no inhibition observed): 33%
